{"source": "patent US20230320989A1", "about": "“SUSTAINED-RELEASE PHARMACEUTICAL FORMULATION OF FUSED TRICYCLIC ?-AMINO ACID DERIVATIVE AND PREPARATION METHOD THEREFOR” (SICHUAN HAISCO PHARMACEUTICAL CO., LTD., priority 2020, published 2023)", "origin": "cited, not measured here", "conditions": "patients with diabetic peripheral neuropathy"}
{"smiles": "NCC1(CC(=O)O)CCCCC1", "note": "[gabapentin]", "values": [{"measurement": "proportion of patients whose pain is relieved to a great extent", "result": "about 60%"}]}
